# According to patent US20250099420A1, “SMALL MOLECULE MODULATORS OF GPR139 COMPLEX” (University of Florida Research Foundation, Incorporated, priority 2022, published 2025):
# Where two headings read alike, the source gives them in different places.
# Experiments:
# GPR139 = molecular target: T1, GPR139 (Homo sapiens, UniProt Q6DWJ6); experiment: GPR139 Agonist titration / agonist counterscreen assay (calcium detection, HEK-GPR139 cells); format: cell-based; parameters: expressed in transfected cells; host or cells: HEK Aequorin cells, Maxcyte transient transfection; settings: GPR139 Agonist Activity; for EC50: read-out: EC50; for Averaged Max % Response (±St. Dev.): activity relative to known control
# T1 sequence (Q6DWJ6 1-353): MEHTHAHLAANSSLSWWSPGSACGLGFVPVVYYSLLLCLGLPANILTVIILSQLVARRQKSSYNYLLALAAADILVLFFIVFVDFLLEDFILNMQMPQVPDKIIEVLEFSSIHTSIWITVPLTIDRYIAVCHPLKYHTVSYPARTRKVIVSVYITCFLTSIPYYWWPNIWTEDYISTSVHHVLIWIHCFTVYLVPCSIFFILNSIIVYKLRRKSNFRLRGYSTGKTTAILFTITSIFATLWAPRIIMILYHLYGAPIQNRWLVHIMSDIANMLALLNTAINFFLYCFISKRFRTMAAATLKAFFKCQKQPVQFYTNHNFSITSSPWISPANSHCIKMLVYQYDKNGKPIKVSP
# Experimental: GPR activity was assessed using a calcium detection assay. […] Negative control samples were treated with DMSO. […] Intracellular calcium was measured using Calcium 5.
# parental HEK cells = experiment: HEK parental Agonist Counterscreen Assay (non-transfected cells); format: cell-based; settings: for Averaged Max % Response (±St. Dev.): activity relative to known control
# Description: The high control for the agonist counterscreen was Forskolin not acetylcholine.
# [1] = HEK Agonist Activity section of Table 4 (parental HEK counterscreen)
# [2] = Homo sapiens, HEK293, HEK Agonist Activity section of Table 4 (parental HEK counterscreen)
# [3] = HEK Agonist Activity, parental non-transfected HEK cells
# [4] = values printed in E-notation without unit
Structure (SMILES),Efficiency Ligand (GPR139),Hill Slope (GPR139),Lipophilic Efficiency (logD) (GPR139),Lipophilic Efficiency (logP) (GPR139),EC50 (GPR139; HEK-GPR139 cells),Averaged Max % Response (±St. Dev.) (GPR139),Lipophilic Efficiency (logD) (parental HEK cells; HEK Agonist Activity section),Lipophilic Efficiency (logP) (parental HEK cells; HEK Agonist Activity section),Lipophilic Efficiency (logD) (GPR139; based on logD),Lipophilic Efficiency (logP) (GPR139; based on logP),Efficiency Ligand (GPR139; ligand efficiency),Hill Slope (GPR139; fitted dose-response curve),EC50 (GPR139; [4]),EC50 (parental HEK cells; [1]),Averaged Max % Response (±St. Dev.) (parental HEK cells; HEK Agonist Activity section),EC50 (parental HEK cells; [2]),further results
Cc1[nH]ncc1-c1ccc(NC(=O)C2COc3ccc(F)cc3C2)c(OCCN2CCOCC2)c1.O=C(O)C(F)(F)F.O=C(O)C(F)(F)F (stereo not shown) [SR-00000005393],0.25,0.94,3.27,3.22,629 nM,87.23 ± 6.46%,1.92,1.87,,,,,,> 14100 nM,10.82 ± 8.56%,,
CCCc1ccc(NC(=O)CCc2nc3c(c(=O)n2C)CCC3)cc1 [SR-01000017533],0.31,1.55,3.33,3.33,,69.12 ± 3.13%,2.68,2.68,,,,,,,−1.95 ± 4.81%,> 14200 nM,
CC1CCCC(NC(=O)CN2CCN(Cc3ccc(F)cc3Cl)C2=O)C1C (stereo not shown) [SR-01000125648],0.33,0.84,3.13,3.13,490 nM,98.80 ± 20.98%,1.67,1.67,,,,,,,8.17 ± 5.14%,> 14100 nM,
CC1CCCCN1C(=O)CN1C(=O)C2(CCc3ccccc3C2)NC1=S (stereo not shown) [SR-01000044433],0.33,0.97,4.10,4.10,896 nM,96.03 ± 12.11%,2.90,2.90,,,,,,,12.49 ± 3.39%,> 14300 nM,
O=C(CN1N=C(c2ccc(Cl)cc2)CCC1=O)NCCN1CCc2ccccc2C1 [SR-01000145135],0.30,0.84,4.49,4.01,301 nM,81.84 ± 7.77%,2.82,2.34,,,,,,> 14100 nM,−17.80 ± 4.24%,,
Cc1c2cnn(CC(=O)NC(C)c3ccccc3)c(=O)c2c(C)n1Cc1ccc(F)cc1 (stereo not shown) [SR-01000138428],,,,,,81.78 ± 16.61%,,,4.85,4.85,0.38,,,,,,Lipophilic Efficiency (logD) (parental HEK cells; HEK Agonist Activity): 1.03; Lipophilic Efficiency (logP) (parental HEK cells; HEK Agonist Activity): 1.03; Averaged Max % Response (±St. Dev.) (parental HEK cells; HEK Agonist Activity): −0.31 ± 7.41%; EC50 (parental HEK cells; [3]): > 14100 nM
CCCCN(C)C(=O)CCC(=O)NNC1Cc2ccccc2C2=CC(C)=CC21 (stereo not shown) [SR-01000131962],,,,,,113.53 ± 12.66%,2.37,2.37,4.28,4.28,0.34,1.14,,,−5.39 ± 5.10%,> 14100 nM,
O=C(Cn1cc2c(n1)CCCCC2)NCCCc1ccccc1 [SR-01000088420],,,,,,100.76 ± 18.47%,1.33,1.33,3.28,3.28,0.41,1.29,156 nM,> 14100 nM,12.56 ± 5.54%,,
O=C(CCc1nc2cccnc2n1Cc1cccs1)NCCc1cccs1 [SR-01000077903],,,,,,105.59 ± 5.95%,1.29,1.29,3.66,3.66,0.37,0.45,60.2 nM,,1.27 ± 2.74%,> 14100 nM,
O=C(CN1C(=O)OC(O)(c2ccc(Cl)cc2Cl)C1=O)Nc1ccccc1Cl (stereo not shown) [SR-01000062419],0.33,0.63,2.50,2.49,438 nM,105.27 ± 9.38%,0.98,0.97,,,,,,,19.92 ± 2.49%,> 14500 nM,
CN(C)C(CNC(=O)Nc1ccc(Cl)c(Cl)c1)c1cccnc1 (stereo not shown) [SR-01000127953],,,,,,96.92 ± 13.57%,2.35,1.96,4.13,3.73,0.40,0.56,236 nM,,10.89 ± 5.56%,> 14100 nM,
O=C(CSc1ccc(Cl)cc1)Nc1nnc(-c2ccc(F)cc2)o1 [SR-01000021435],,,,,,162.60 ± 13.73%,1.22,1.22,3.60,3.60,0.42,,> 57.4 nM,> 13900 nM,24.48 ± 11.03%,,

# The next lines start with results.
Efficiency Ligand (GPR139),Hill Slope (GPR139),Lipophilic Efficiency (logD) (GPR139),Lipophilic Efficiency (logP) (GPR139),EC50 (GPR139; HEK-GPR139 cells),Averaged Max % Response (±St. Dev.) (GPR139),Lipophilic Efficiency (logD) (parental HEK cells; HEK Agonist Activity section),Lipophilic Efficiency (logP) (parental HEK cells; HEK Agonist Activity section),Lipophilic Efficiency (logD) (GPR139; based on logD),Lipophilic Efficiency (logP) (GPR139; based on logP),Efficiency Ligand (GPR139; ligand efficiency),Hill Slope (GPR139; fitted dose-response curve),EC50 (GPR139; [4]),Structure (SMILES),EC50 (parental HEK cells; [1]),Averaged Max % Response (±St. Dev.) (parental HEK cells; HEK Agonist Activity section),EC50 (parental HEK cells; [2]),further results
0.31,0.53,2.32,0.87,1800 nM,135.48 ± 20.60%,1.43,−0.025,,,,,,Cc1ccccc1CN1CCC(O)(c2ccc(Cl)c(C(F)(F)F)c2)CC1 [SR-05000022582],> 14100 nM,0.58 ± 18.59%,,
,,,,,99.03 ± 14.80%,1.59,1.59,3.43,3.43,0.32,1.55,201 nM,O=C(NCc1csc(-c2cccs2)n1)C1CC(Cc2ccc3c(c2)OCO3)=NO1 (stereo not shown) [SR-01000187428],,6.44 ± 5.26%,> 14100 nM,
0.28,0.84,2.73,2.73,1300 nM,81.20 ± 9.68%,1.69,1.69,,,,,,CCOC(=O)C1CCN(C(=O)C2CC(Cc3cccc4ccccc34)=NO2)CC1 (stereo not shown) [SR-01000185621],,−9.62 ± 7.28%,> 14100 nM,
,,,,,107.79 ± 9.70%,,,5.30,5.30,0.38,0.87,,COc1ccc(-c2nnn(CC(=O)NCCc3c[nH]c4ccccc34)n2)cc1OC [SR-01000339494],,,,"Lipophilic Efficiency (logD) (parental HEK cells; HEK Agonist Activity): 1.97; Lipophilic Efficiency (logP) (parental HEK cells; HEK Agonist Activity): 1.97; Averaged Max % Response (±St. Dev.) (parental HEK cells; HEK Agonist Activity): 13.92 ± 7.54%; EC50 (parental HEK cells; Homo sapiens, HEK293, HEK Agonist Activity, parental non-transfected HEK cells): > 14100 nM"
0.26,1.92,3.33,3.33,1600 nM,81.02 ± 6.69%,2.37,2.37,,,,,,CCCc1nn(CC(=O)NCc2nc3ccccc3n2C)c(=O)c2cc3ccsc3n12 [SR-01000336681],> 14100 nM,4.99 ± 7.59%,,
,,,,,99.08 ± 8.57%,,,6.97,6.95,0.24,0.79,13.8 nM,CC(C)C1CC(=O)[C@@H]2C[C@@H](CC2C(=O)CC2CCOc3ccccc3C2)C2C=CC(=C2)CCC(=O)[C@@H](Cc2ccccc2)NC1=O (stereo partly shown) [SR-05000709044],,,,Lipophilic Efficiency (logD) (parental HEK cells; HEK Agonist Activity): 3.96; Lipophilic Efficiency (logP) (parental HEK cells; HEK Agonist Activity): 3.94; Averaged Max % Response (±St. Dev.) (parental HEK cells; HEK Agonist Activity): −2.44 ± 4.17%; EC50 (parental HEK cells; [3]): > 14100 nM
0.36,0.84,3.11,3.11,437 nM,109.12 ± 32.80%,1.48,1.48,,,,,,CCN(Cc1ccccc1)C(=O)Cn1cnc2sc(O)c(C)c2c1=O [SR-01000468553],,35.00 ± 2.11%,> 18500 nM,
